Consider 27 compounds from patent US20070049593A1 (priority 2004, published 2007).

The structures appear in SMILES notation. Where a name gives a salt, the structure may show the parent alone.

The target in this assay is T1, HCV polymerase (Hepatitis C virus genotype 1b, UniProt P26663).
T1 construct: a region encoding NS5B (J Virol 1991 March, 65(3), 1105-13, 544 amino acids after deletion of 47 amino acids on the C-terminal); 6xHis (C); made in house; host or cells: Escherichia coli
T1 sequence (P26663 2420-2963): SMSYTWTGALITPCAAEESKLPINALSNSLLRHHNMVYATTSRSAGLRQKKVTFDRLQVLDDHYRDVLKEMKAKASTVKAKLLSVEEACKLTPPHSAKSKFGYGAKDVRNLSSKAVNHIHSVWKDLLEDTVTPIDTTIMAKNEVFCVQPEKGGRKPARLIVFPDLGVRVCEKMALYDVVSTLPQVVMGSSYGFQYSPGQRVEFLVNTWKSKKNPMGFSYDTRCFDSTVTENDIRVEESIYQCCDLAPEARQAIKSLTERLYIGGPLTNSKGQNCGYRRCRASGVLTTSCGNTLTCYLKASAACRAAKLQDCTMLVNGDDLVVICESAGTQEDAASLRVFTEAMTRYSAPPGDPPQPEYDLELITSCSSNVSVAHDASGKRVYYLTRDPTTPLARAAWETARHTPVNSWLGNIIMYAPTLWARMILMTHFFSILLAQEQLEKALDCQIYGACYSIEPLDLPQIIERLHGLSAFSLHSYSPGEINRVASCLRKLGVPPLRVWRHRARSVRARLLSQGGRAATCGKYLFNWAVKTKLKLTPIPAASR
As to the kind of experiment: biochemical. On the set-up: species or system HCV BK strain. Put shortly: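 His-tagged NS5B (BK strain, 47-aa C-terminal deletion, E. coli-expressed) at 0.5 μg/ml copied 5 μg/ml run-off RNA bearing the HCV 3′ UTR with 2 μM UTP plus [3H]UTP, 50 μM ATP/GTP, in pH 7.5 Tris with 5 mM MgCl2, 25 °C, 90 min. TCA-precipitated RNA was counted and IC50 calculated.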
The IC50 is the midpoint of a concentration-inhibition curve. On to `CN1CCC(N(C)CCOc2cccc3c2OCCn2c-3c(C3CCCCC3)c3ccc(C(=O)O)cc32)CC1` [Example 2-472, 12-cyclohexyl-4-{2-[N-methyl-N-(1-methylpiperidin-4-yl)amino]ethoxy}-6,7-dihydro-5-oxa-7a-azadibenzo[a,e]azulene-9-carboxylic acid trihydrochloride], for which the IC50 was below 100 nM. `COC(=O)c1ccc2c(C3CCCCC3)c3n(c2c1)CCOc1c(OCC(=O)O)cccc1-3` [Example 2-473, methyl 4-carboxymethoxy-12-cyclohexyl-6,7-dihydro-5-oxa-7a-azadibenzo[a,e]azulene-9-carboxylate] returned an IC50 of 100 to 1000 nM. `CN(CCN1CCCCC1)c1cccc2c1OCCn1c-2c(C2CCCCC2)c2ccc(C(=O)O)cc21` [Example 2-474, 12-cyclohexyl-4-(N-methyl-N-[2-(piperidin-1-yl)ethyl]amino}-6,7-dihydro-5-oxa-7a-azadibenzo[a,e]azulene-9-carboxylic acid dihydrochloride] yielded an IC50 below 100 nM. `COc1cccc2c1OCCn1c-2c(C2CCCCC2)c2ccc(C(=O)O)cc21` [Example 2-475, 12-cyclohexyl-4-methoxy-6,7-dihydro-5-oxa-7a-azadibenzo[a,e]azulene-9-carboxylic acid] gave an IC50 below 100 nM. `Nc1cccc2c1OCCn1c-2c(C2CCCCC2)c2ccc(C(=O)O)cc21` [Example 2-476, 4-amino-12-cyclohexyl-6,7-dihydro-5-oxa-7a-azadibenzo[a,e]azulene-9-carboxylic acid] came in with a half-maximal inhibitory concentration (IC50) below 100 nM. `O=C(O)c1ccc2c(C3CCCCC3)c3n(c2c1)CCOc1c-3cccc1[N+](=O)[O-]` [Example 2-477, 12-cyclohexyl-4-nitro-6,7-dihydro-5-oxa-7a-azadibenzo[a,e]azulene-9-carboxylic acid] returned an IC50 below 100 nM. In turn, `O=C(O)c1ccc2c(C3CCCCC3)c3n(c2c1)CCOc1c(NCCN2CCCCC2)cccc1-3` [Example 2-478, 12-cyclohexyl-4-[2-(piperidin-1-yl)ethylamino]-6,7-dihydro-5-oxa-7a-azadibenzo[a,e]azulene-9-carboxylic acid dihydrochloride] had an IC50 below 100 nM.

`Cc1ccc2c(c1)OCCn1c-2c(C2CCCCC2)c2ccc(C(=O)O)cc21` [Example 2-479, 12-cyclohexyl-3-methyl-6,7-dihydro-5-oxa-7a-azadibenzo[a,e]azulene-9-carboxylic acid]: the 50% inhibitory concentration (IC50) is below 100 nM.

As for `CCN(CCN1CCCCC1)c1cccc2c1OCCn1c-2c(C2CCCCC2)c2ccc(C(=O)O)cc21` [Example 2-480, 12-cyclohexyl-4-{N-ethyl-N-[2-(piperidin-1-yl)ethyl]amino}-6,7-dihydro-5-oxa-7a-azadibenzo[a,e]azulene-9-carboxylic acid dihydrochloride], the IC50 was below 100 nM. For `CCCN(CCN1CCCCC1)c1cccc2c1OCCn1c-2c(C2CCCCC2)c2ccc(C(=O)O)cc21` [Example 2-481, 12-cyclohexyl-4-{N-[2-(piperidin-1-yl)ethyl]-N-propylamino}-6,7-dihydro-5-oxa-7a-azadibenzo[a,e]azulene-9-carboxylic acid dihydrochloride] the value was below 100 nM.

As to `COCCN(CCN1CCCCC1)c1cccc2c1OCCn1c-2c(C2CCCCC2)c2ccc(C(=O)O)cc21` [Example 2-482, 12-cyclohexyl-4-{N-(2-methoxyethyl)-N-[2-(piperidin-1-yl)ethyl]amino}-6,7-dihydro-5-oxa-7a-azadibenzo[a,e]azulene-9-carboxylic acid dihydrochloride], the IC50 was below 100 nM.

Regarding `CN(C)c1cccc2c1OCCn1c-2c(C2CCCCC2)c2ccc(C(=O)O)cc21` [Example 2-483, 12-cyclohexyl-4-dimethylamino-6,7-dihydro-5-oxa-7a-azadibenzo[a,e]azulene-9-carboxylic acid], the IC50 was below 100 nM. Take `O=C(O)c1ccc2c(C3CCCCC3)c3n(c2c1)CCOc1cccc(F)c1-3` [Example 2-484, 12-cyclohexyl-1-fluoro-6,7-dihydro-5-oxa-7a-azadibenzo[a,e]azulene-9-carboxylic acid]: the IC50 is below 100 nM. `CC(=O)N(CCN1CCCCC1)c1cccc2c1OCCn1c-2c(C2CCCCC2)c2ccc(C(=O)O)cc21` [Example 2-485, 4-{N-acetyl-N-[2-(piperidin-1-yl)ethyl]amino}-12-cyclohexyl-6,7-dihydro-5-oxa-7a-azadibenzo[a,e]azulene-9-carboxylic acid] displayed an IC50 below 100 nM.

For `CN(CC(=O)N1CCCCC1)c1cccc2c1OCCn1c-2c(C2CCCCC2)c2ccc(C(=O)O)cc21` [Example 2-486, 12-cyclohexyl-4-{N-methyl-N-[2-oxo-2-(piperidin-1-yl)ethyl]amino}-6,7-dihydro-5-oxa-7a-azadibenzo[a,e]azulene-9-carboxylic acid], the IC50 is below 100 nM.

With `COc1ccc2c(c1)OCCn1c-2c(C2CCCCC2)c2ccc(C(=O)NC3(C(=O)Nc4ccc(S(=O)(=O)O)cc4)CCC3)cc21` [Example 2-523, 4-({1-[(12-cyclohexyl-3-methoxy-6,7-dihydro-5-oxa-7a-azadibenzo[a,e]azulene-9-carbonyl)amino]cyclobutanecarbonyl}amino)benzenesulfonic acid], the IC50 is below 100 nM. `COc1ccc2c(c1)OCCn1c-2c(C2CCCCC2)c2ccc(C(=O)N[C@@H](Cc3ccc(O)cc3)C3=NC(C)(C)C(=O)O3)cc21` [Example 2-524, N—[(S)-1-(4,4-dimethyl-5-oxo-4,5-dihydrooxazol-2-yl)-2-(4-hydroxyphenyl)ethyl]-12-cyclohexyl-3-methoxy-6,7-dihydro-5-oxa-7a-azadibenzo[a,e]azulene-9-carboxamide] showed an IC50 below 100 nM. Consider `COc1ccc2c(c1)OCCn1c-2c(C2CCCCC2)c2ccc(C(=O)N[C@@H](Cc3ccc(OCc4ccccc4)cc3)c3n[nH]c(C)n3)cc21` [Example 2-525, N—[(S)-2-(4-benzyloxyphenyl)-1-(5-methyl-1H-1,2,4-triazol-3-yl)ethyl]-12-cyclohexyl-3-methoxy-6,7-dihydro-5-oxa-7a-azadibenzo[a,e]azulene-9-carboxamide], for which the 50% inhibitory concentration (IC50) was below 100 nM. The result for `COc1ccc2c(c1)OCCn1c-2c(C2CCCCC2)c2ccc(C(=O)N[C@@H](Cc3ccc(O)cc3)c3n[nH]c(C)n3)cc21` [Example 2-526, N—[(S)-2-(4-hydroxyphenyl)-1-(5-methyl-1H-1,2,4-triazol-3-yl)ethyl]-12-cyclohexyl-3-methoxy-6,7-dihydro-5-oxa-7a-azadibenzo[a,e]azulene-9-carboxamide] reads below 100 nM. For `CNC(=O)COc1ccc2[nH]c(C3(NC(=O)c4ccc5c(C6CCCCC6)c6n(c5c4)CCOc4cc(OC)ccc4-6)CCC3)nc2c1` [Example 2-527, N-[1-(5-methylcarbamoylmethoxy-1H-benzimidazol-2-yl)cyclobutyl]-12-cyclohexyl-3-methoxy-6,7-dihydro-5-oxa-7a-azadibenzo[a,e]azulene-9-carboxamide] the value was below 100 nM. The compound `COc1ccc2c(c1)OCCn1c-2c(C2CCCCC2)c2ccc(C(=O)NC3(C(=O)Nc4ccc(/C=C(\C)C(=O)O)cc4)CCC3)cc21` [Example 2-528, (E)-3-[4-({1-[(12-cyclohexyl-3-methoxy-6,7-dihydro-5-oxa-7a-azadibenzo[a,e]azulene-9-carbonyl)amino]cyclobutanecarbonyl}amino)phenyl]-2-methylacrylic acid] returned an IC50 below 100 nM.

Take `COc1ccc2c(c1)OCCn1c-2c(C2CCCCC2)c2ccc(C(=O)NC3(C(=O)Nc4ccc(/C(C)=C/C(=O)O)cc4)CCC3)cc21` [Example 2-529, (E)-3-[4-({1-[(12-cyclohexyl-3-methoxy-6,7-dihydro-5-oxa-7a-azadibenzo[a,e]azulene-9-carbonyl)amino]cyclobutanecarbonyl}amino)phenyl]but-2-enoic acid]: the IC50 was below 100 nM.

Turning to `COc1ccc2c(c1)OCCn1c-2c(C2CCCCC2)c2ccc(C(=O)NC3(C(=O)Nc4ccc(/C=C/C(=O)O)cc4OCCOCc4ccccc4)CCC3)cc21` [Example 2-530, (E)-3-[3-(2-benzyloxyethoxy)-4-({1-[(12-cyclohexyl-3-methoxy-6,7-dihydro-5-oxa-7a-azadibenzo[a,e]azulene-9-carbonyl)amino]cyclobutanecarbonyl}amino)phenyl]acrylic acid], the IC50 is below 100 nM. Regarding `COc1ccc2c(c1)OCCn1c-2c(C2CCCCC2)c2ccc(C(=O)NC3(C(=O)Nc4ccc(/C=C/C(=O)O)c(OC)c4)CCC3)cc21` [Example 2-531, (E)-3-[4-({1-[(12-cyclohexyl-3-methoxy-6,7-dihydro-5-oxa-7a-azadibenzo[a,e]azulene-9-carbonyl)amino]cyclobutanecarbonyl}amino)-2-methoxyphenyl]acrylic acid], the 50% inhibitory concentration (IC50) is below 100 nM.

Compound `COC[C@](C)(NC(=O)c1ccc2c(C3CCCCC3)c3n(c2c1)CCOc1cc(OC)ccc1-3)C(=O)O` [Example 2-532, (S)-2-[(12-cyclohexyl-3-methoxy-6,7-dihydro-5-oxa-7a-azadibenzo[a,e]azulene-9-carbonyl)amino]-3-methoxy-2-methylpropionic acid] had an IC50 below 100 nM.

`CCn1c([C@H](Cc2ccc(O)cc2)NC(=O)c2ccc3c(C4CCCCC4)c4n(c3c2)CCOc2cc(OC)ccc2-4)n[nH]c1=O` [Example 2-533, N—[(S)-1-(4-ethyl-5-oxo-4,5-dihydro-1H-1,2,4-triazol-3-yl)-2-(4-hydroxyphenyl)ethyl]-12-cyclohexyl-3-methoxy-6,7-dihydro-5-oxa-7a-azadibenzo[a,e]azulene-9-carboxamide]: the IC50 is below 100 nM. Compound `O=C(O)c1ccc2c(C3CCCCC3)c3n(c2c1)CCOc1c(-c2ccccc2/C=C/C(=O)N2CCCCC2)cccc1-3` [Example 2-534, 12-cyclohexyl-4-{2-[(E)-3-oxo-3-(piperidin-1-yl)propenyl]phenyl}-6,7-dihydro-5-oxa-7a-azadibenzo[a,e]azulene-9-carboxylic acid] gave an IC50 below 100 nM.
